From PMC12136037, “Type II kinase inhibitors that target Parkinson’s disease–associated LRRK2” (Science Advances, 2025)
“And” between values parts separate entries of the source, which are not always exact repeats. Equal entries are not always repeated.

Molecular target: T1, LRRK2 (Homo sapiens, UniProt Q5S007)
T1 construct: wild-type full-length LRRK2 (pcDNA5-LRRK2, RRID: Addgene_229019)
Assay: Western blot of Rab8a phosphorylation (pT72) in 293T cells transfected with wild-type LRRK2 and GFP-Rab8a
Format: cell-based
Conditions: for toxicity / effect on phosphorylation of Rab8a in cells: 293T cells; for toxicity: any of the concentrations used; for effect on phosphorylation of Rab8a in cells: increasing concentrations
Procedure: For all in cell kinase assays, after 48 hours, transfected cells were treated with either DMSO (control) or the indicated inhibitors for 4 hours at 37°C and 5% CO2. Following treatments, cells were washed three times with ice cold PBS. Cells were then lysed in ice cold radioimmunoprecipitation assay (RIPA) lysis buffer [50 mM tris (pH 8.0), 150 mM NaCl, 1% Triton X-100, 0.1% SDS, 0.5% sodium deoxycholate, and 1 mM DTT] in the presence of complete mini EASYpack protease inhibitor cocktail and the PhosSTOP EASYpack phosphatase inhibitor cocktail (Roche). Resuspended and lysed cells were clarified by centrifugation at 13,000g for 15 min at 4°C. […] The membrane was blocked in 5% milk in 1× Tris-buffered saline (TBS) [20 mM tris (pH 8.0) and 150 mM NaCl] for 1 hour shaking at room temperature. […] Membranes were then washed three times in 1× TBS-T before imaging on Li-COR Odyssey CLx controlled by Imaging Studio software (www.licorbio.com/image-studio, RRID:SCR_015795). […] The signal intensity of each band was assessed using the Analyze>Gels tool. The band intensity for phosphorylated LRRK2 was measured and compared to total LRRK2 levels (run under identical conditions on a separate gel). Band intensity for phosphorylated Rab7 or Rab8a was measured and compared against total GFP-Rab7 or GFP-Rab8a (using anti-GFP antibody) and LRRK1/LRRK2 levels as appropriate. Comparative statistical analysis of phosphorylation levels was analyzed using a one-way analysis of variance (ANOVA) and corrected using Tukey’s multiple comparisons test in GraphPad Prism 10 (www.graphpad.com/, RRID:SCR_002798).

[1] = GFP-11 tagged WT LRRK2, 5 μM, 4 replicates

T1 sequence (Q5S007 whole entry): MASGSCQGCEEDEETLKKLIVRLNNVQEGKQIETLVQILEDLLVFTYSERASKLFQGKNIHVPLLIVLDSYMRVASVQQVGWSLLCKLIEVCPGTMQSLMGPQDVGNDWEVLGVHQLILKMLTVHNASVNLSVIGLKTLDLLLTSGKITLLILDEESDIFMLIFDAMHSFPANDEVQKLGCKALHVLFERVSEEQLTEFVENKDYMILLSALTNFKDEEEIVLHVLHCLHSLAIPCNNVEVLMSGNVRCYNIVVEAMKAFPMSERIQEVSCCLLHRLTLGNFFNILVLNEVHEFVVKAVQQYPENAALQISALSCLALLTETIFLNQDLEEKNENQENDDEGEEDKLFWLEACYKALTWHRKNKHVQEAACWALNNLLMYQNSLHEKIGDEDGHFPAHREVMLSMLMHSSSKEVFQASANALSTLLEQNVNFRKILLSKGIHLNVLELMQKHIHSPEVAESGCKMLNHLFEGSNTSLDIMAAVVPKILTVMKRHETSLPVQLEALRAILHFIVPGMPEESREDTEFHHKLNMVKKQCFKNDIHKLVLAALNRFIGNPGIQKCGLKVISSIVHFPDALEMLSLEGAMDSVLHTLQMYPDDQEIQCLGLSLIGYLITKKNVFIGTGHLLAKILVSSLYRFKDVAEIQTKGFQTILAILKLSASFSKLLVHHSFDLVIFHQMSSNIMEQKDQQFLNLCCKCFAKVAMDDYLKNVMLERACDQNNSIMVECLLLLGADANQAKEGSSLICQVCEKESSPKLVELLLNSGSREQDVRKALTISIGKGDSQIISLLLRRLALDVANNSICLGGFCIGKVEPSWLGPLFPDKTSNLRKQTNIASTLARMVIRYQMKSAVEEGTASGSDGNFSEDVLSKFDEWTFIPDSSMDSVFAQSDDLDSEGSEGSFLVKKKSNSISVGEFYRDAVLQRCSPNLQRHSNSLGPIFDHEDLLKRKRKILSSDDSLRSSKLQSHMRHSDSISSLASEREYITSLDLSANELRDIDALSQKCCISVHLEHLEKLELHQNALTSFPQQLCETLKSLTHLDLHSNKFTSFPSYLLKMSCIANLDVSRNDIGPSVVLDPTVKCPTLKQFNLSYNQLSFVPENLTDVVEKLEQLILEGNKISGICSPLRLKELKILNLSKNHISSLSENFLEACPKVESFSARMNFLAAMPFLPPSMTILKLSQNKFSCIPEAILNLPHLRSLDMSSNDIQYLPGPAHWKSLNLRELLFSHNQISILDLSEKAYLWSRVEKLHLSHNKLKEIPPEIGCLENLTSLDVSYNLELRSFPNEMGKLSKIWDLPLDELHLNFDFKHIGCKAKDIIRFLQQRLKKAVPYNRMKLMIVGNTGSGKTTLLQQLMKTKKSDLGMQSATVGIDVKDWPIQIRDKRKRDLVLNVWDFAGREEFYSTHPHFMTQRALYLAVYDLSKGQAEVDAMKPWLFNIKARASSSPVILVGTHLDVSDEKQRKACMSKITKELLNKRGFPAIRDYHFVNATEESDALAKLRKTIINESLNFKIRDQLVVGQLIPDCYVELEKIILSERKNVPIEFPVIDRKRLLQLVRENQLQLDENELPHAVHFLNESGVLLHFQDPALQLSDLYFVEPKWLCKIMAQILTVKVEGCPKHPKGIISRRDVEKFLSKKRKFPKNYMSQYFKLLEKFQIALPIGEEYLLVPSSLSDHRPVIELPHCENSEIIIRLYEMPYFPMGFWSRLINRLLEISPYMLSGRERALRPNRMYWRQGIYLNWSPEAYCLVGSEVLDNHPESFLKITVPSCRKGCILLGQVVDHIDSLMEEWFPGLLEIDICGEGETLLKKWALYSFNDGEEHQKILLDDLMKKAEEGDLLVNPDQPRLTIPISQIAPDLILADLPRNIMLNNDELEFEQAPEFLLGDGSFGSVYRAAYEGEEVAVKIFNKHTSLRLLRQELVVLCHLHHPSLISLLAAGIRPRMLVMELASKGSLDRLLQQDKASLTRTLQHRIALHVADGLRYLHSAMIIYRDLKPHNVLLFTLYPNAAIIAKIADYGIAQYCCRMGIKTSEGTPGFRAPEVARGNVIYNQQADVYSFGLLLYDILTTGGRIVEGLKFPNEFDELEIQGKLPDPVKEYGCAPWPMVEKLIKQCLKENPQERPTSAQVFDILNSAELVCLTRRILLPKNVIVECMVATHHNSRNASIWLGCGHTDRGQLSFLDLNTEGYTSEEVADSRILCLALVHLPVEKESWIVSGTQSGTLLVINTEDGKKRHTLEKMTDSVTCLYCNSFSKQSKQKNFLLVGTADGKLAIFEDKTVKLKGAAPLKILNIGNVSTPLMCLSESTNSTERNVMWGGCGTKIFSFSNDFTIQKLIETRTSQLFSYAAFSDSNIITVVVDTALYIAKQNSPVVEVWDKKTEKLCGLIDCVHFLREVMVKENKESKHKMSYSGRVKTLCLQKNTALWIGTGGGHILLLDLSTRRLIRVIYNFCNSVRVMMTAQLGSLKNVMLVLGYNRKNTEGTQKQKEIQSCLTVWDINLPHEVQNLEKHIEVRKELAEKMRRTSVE

SMILES	pRab8/Rab8/LRRK2 normalized to DMSO, Mean (250 nM, 4 h, 3 replicates)	pRab8/Rab8/LRRK2 normalized to DMSO, Mean (500 nM, 4 h, 3 replicates)	pRab8/Rab8/LRRK2 normalized to DMSO, Mean (1 μM, 4 h, 3 replicates)	pRab8/Rab8/LRRK2 normalized to DMSO, Mean (5 μM, 4 h, 3 replicates)	pRab8/Rab8/LRRK2 normalized to DMSO, Mean (10 μM, 4 h, 3 replicates)	toxicity	effect on phosphorylation of Rab8a in cells	pRab8/Rab8/LRRK2 normalized to DMSO, Mean [1]	further results
Cc1ccc(-n2nc(C(C)(C)C)cc2NC(=O)Nc2cccc(-c3c[nH]c4nc(Cl)nc(N5CCOCC5)c34)c2)cc1 [Compound 30]	1.123	0.8664	0.8611	0.2926	0.2543	Toxicity did not appear to be an issue	reduced phosphorylation of Rab8a in a dose-dependent manner	0.2436	pRab8/Rab8/LRRK2 normalized to DMSO (250 nM, 4 h, individual Western blots, listed as 277): 1.0545 and 1.033 and 1.2826; pRab8/Rab8/LRRK2 normalized to DMSO (500 nM, 4 h, individual Western blots, listed as 277): 0.8279 and 0.7001 and 1.071; pRab8/Rab8/LRRK2 normalized to DMSO (1 μM, 4 h, individual Western blots, listed as 277): 0.8817 and 0.6143 and 1.087; pRab8/Rab8/LRRK2 normalized to DMSO (5 μM, 4 h, individual Western blots, listed as 277): 0.3266 and 0.2385 and 0.3127; pRab8/Rab8/LRRK2 normalized to DMSO (10 μM, 4 h, individual Western blots, listed as 277): 0.2723 and 0.2085 and 0.282; pRab8/Rab8/LRRK2 normalized to DMSO (GFP-11 tagged WT LRRK2, 5 μM, individual blots, normalized to WT DMSO, listed as RN277): 0.1001 and 0.2331 and 0.598 and 0.04303
CCSc1nc(NC)c2c(-c3cccc(NC(=O)Nc4cc(C(C)(C)C)nn4-c4ccc(C)cc4)c3)c[nH]c2n1 [Compound 32]	1.109	0.9957	0.8556	0.5047	0.408	Toxicity did not appear to be an issue	reduced phosphorylation of Rab8a in a dose-dependent manner	0.2782	pRab8/Rab8/LRRK2 normalized to DMSO (250 nM, 4 h, individual Western blots, listed as 341): 1.128 and 0.9817 and 1.217; pRab8/Rab8/LRRK2 normalized to DMSO (500 nM, 4 h, individual Western blots, listed as 341): 1.05 and 0.7587 and 1.178; pRab8/Rab8/LRRK2 normalized to DMSO (1 μM, 4 h, individual Western blots, listed as 341): 0.8182 and 0.7772 and 0.9713; pRab8/Rab8/LRRK2 normalized to DMSO (5 μM, 4 h, individual Western blots, listed as 341): 0.5692 and 0.3629 and 0.5821; pRab8/Rab8/LRRK2 normalized to DMSO (10 μM, 4 h, individual Western blots, listed as 341): 0.4385 and 0.2564 and 0.5293; pRab8/Rab8/LRRK2 normalized to DMSO (GFP-11 tagged WT LRRK2, 5 μM, individual blots, normalized to WT DMSO, listed as RN341): 0.1752 and 0.6963 and 0.1155 and 0.1257
Cc1ccc(C(=O)Nc2ccc(CN3CCN(C)CC3)c(C(F)(F)F)c2)cc1C#Cc1cnc2cccnn12 [Ponatinib, reference compound]	–	–	–	0.2682	–	–	–	–	pRab8/Rab8/LRRK2 normalized to DMSO (5 μM, 4 h, individual Western blots): 0.2608 and 0.2643 and 0.2795
